# Laboratory results from PubChem BioAssay (NCI).
#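 Compound exposure: 48 hours, 5 concentrations, 96-well plates. At the TGI there is no net growth.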
# Columns and labels:
# Experiment in all cases: NCI-60 cell line screen, 48 h
# [1] = system: PC-3 prostate
# [2] = system: SK-OV-3 ovarian
# [3] = system: OVCAR-5 ovarian
# [4] = system: CAKI-1 renal
# [5] = system: BT-549 breast
# [6] = system: SW-620 colon
# [7] = system: SK-MEL-28 melanoma
# [8] = system: HS 578T breast
# [9] = system: HT29 colon
# [10] = system: MALME-3M melanoma
# [11] = system: CCRF-CEM leukemia
# [12] = system: NCI-H23 lung
# [13] = system: TK-10 renal
# [14] = system: SF-539 CNS
# [15] = system: NCI/ADR-RES ovarian
# [16] = system: KM12 colon
# [17] = system: SF-268 CNS
# [18] = system: M14 melanoma
# [19] = system: A549 NSCLC
# [20] = system: SF-295 CNS
# [21] = system: HCT-116 colon
# [22] = system: UACC-62 melanoma
# [23] = system: SNB-19 CNS
# [24] = system: RPMI-8226 leukemia
# [25] = system: SNB-75 CNS
# [26] = system: MDA-N
# [27] = system: SK-MEL-5 melanoma
# [28] = system: HCT-15 colon
# [29] = system: NCI-H226 lung
# [30] = system: UACC-257 melanoma
# [31] = system: A498 renal
# [32] = system: RXF 393 renal
# [33] = system: MCF7 breast
# [34] = system: UO-31 renal
# [35] = system: MDA-MB-231 breast
# [36] = system: SK-MEL-2 melanoma
# [37] = system: K-562 leukemia
# [38] = system: SN12C renal
# [39] = system: OVCAR-4 ovarian
# [40] = system: HCC-2998 colon
# [41] = system: OVCAR-3 ovarian
# [42] = system: ACHN renal
# [43] = system: HL-60(TB) leukemia
# [44] = system: HOP-62 NSCLC
# [45] = system: 786-0 renal
# [46] = system: NCI-H460 lung
# [47] = system: NCI-H522 lung
# [48] = system: COLO 205 colon
# [49] = system: SR leukemia
# [50] = system: DU-145 prostate
# [51] = system: EKVX NSCLC
# [52] = system: MOLT-4 leukemia
# [53] = system: MDA-MB-435
# [54] = system: U251 CNS
# [55] = system: T-47D breast
# [56] = system: OVCAR-8 ovarian
# [57] = system: HOP-92 NSCLC
# [58] = system: IGROV1 ovarian
# [59] = system: LOX IMVI melanoma
smiles,measurement,setting,value
CCOC(=O)CCC(NC(=O)Cc1ccc(Nc2nc3ccccc3nc2-c2cccs2)cc1)C(=O)OCC (centres undefined),TGI,[1],> 100 µM
same,TGI,[2],> 100 µM
same,TGI,[3],> 100 µM
same,TGI,[4],> 100 µM
same,TGI,[5],> 100 µM
same,TGI,[6],> 100 µM
same,TGI,[7],> 100 µM
same,TGI,[8],> 100 µM
same,TGI,[9],> 100 µM
same,TGI,[10],> 100 µM
same,TGI,[11],> 100 µM
same,TGI,[12],> 100 µM
same,TGI,[13],84.5 µM
same,TGI,[14],> 100 µM
same,TGI,[15],> 100 µM
same,TGI,[16],> 100 µM
same,TGI,[17],> 100 µM
same,TGI,[18],> 100 µM
same,TGI,[19],> 100 µM
same,TGI,[20],> 100 µM
same,TGI,[21],> 100 µM
same,TGI,[22],> 100 µM
same,TGI,[23],> 100 µM
same,TGI,[24],> 100 µM
same,TGI,[25],> 100 µM
same,TGI,[26],> 100 µM
same,TGI,[27],> 100 µM
same,TGI,[28],> 100 µM
same,TGI,[29],> 100 µM
same,TGI,[30],> 100 µM
same,TGI,[31],> 100 µM
same,TGI,[32],52.5 µM
same,TGI,[33],> 100 µM
same,TGI,[34],> 100 µM
same,TGI,[35],> 100 µM
same,TGI,[36],> 100 µM
same,TGI,[37],> 100 µM
same,TGI,[38],> 100 µM
same,TGI,[39],> 100 µM
same,TGI,[40],> 100 µM
same,TGI,[41],> 100 µM
same,TGI,[42],> 100 µM
same,TGI,[43],> 100 µM
same,TGI,[44],> 100 µM
same,TGI,[45],> 100 µM
same,TGI,[46],> 100 µM
same,TGI,[47],> 100 µM
same,TGI,[48],> 100 µM
same,TGI,[49],> 100 µM
same,TGI,[50],> 100 µM
same,TGI,[51],> 100 µM
same,TGI,[52],> 100 µM
same,TGI,[53],> 100 µM
same,TGI,[54],> 100 µM
same,TGI,[55],66.9 µM
C=C1CC2CCCC12C=O (centres undefined),TGI,[1],> 10 µM
same,TGI,[2],> 10 µM
same,TGI,[4],> 10 µM
same,TGI,[5],> 10 µM
same,TGI,[6],> 10 µM
same,TGI,[7],> 10 µM
same,TGI,[8],> 10 µM
same,TGI,[9],> 10 µM
same,TGI,[10],> 10 µM
same,TGI,[11],> 10 µM
same,TGI,[12],> 10 µM
same,TGI,[13],> 10 µM
same,TGI,[14],> 10 µM
same,TGI,[15],> 10 µM
same,TGI,[16],> 10 µM
same,TGI,[17],> 10 µM
same,TGI,[18],> 10 µM
same,TGI,[19],> 10 µM
same,TGI,[20],> 10 µM
same,TGI,[21],> 10 µM
same,TGI,[22],> 10 µM
same,TGI,[23],> 10 µM
same,TGI,[24],> 10 µM
same,TGI,[25],> 10 µM
same,TGI,[56],> 10 µM
same,TGI,[26],> 10 µM
same,TGI,[27],> 10 µM
same,TGI,[28],> 10 µM
same,TGI,[57],> 10 µM
same,TGI,[30],> 10 µM
same,TGI,[33],> 10 µM
same,TGI,[35],> 10 µM
same,TGI,[37],> 10 µM
same,TGI,[38],> 10 µM
same,TGI,[39],> 10 µM
same,TGI,[40],> 10 µM
same,TGI,[41],> 10 µM
same,TGI,[42],> 10 µM
same,TGI,[43],> 10 µM
same,TGI,[44],> 10 µM
same,TGI,[45],> 10 µM
same,TGI,[58],> 10 µM
same,TGI,[47],> 10 µM
same,TGI,[59],> 10 µM
same,TGI,[48],> 10 µM
same,TGI,[49],> 10 µM
same,TGI,[50],> 10 µM
same,TGI,[52],> 10 µM
same,TGI,[53],> 10 µM
same,TGI,[54],> 10 µM
same,TGI,[55],> 10 µM
CCOC1=NC(C(F)(F)F)(C(F)(F)F)N=C(N2CCOCC2)O1,TGI,[1],> 100 µM
same,TGI,[2],> 100 µM
same,TGI,[3],> 100 µM
same,TGI,[4],> 100 µM
same,TGI,[5],> 100 µM
same,TGI,[6],> 100 µM
same,TGI,[7],> 100 µM
same,TGI,[8],> 100 µM
same,TGI,[9],> 100 µM
same,TGI,[11],> 100 µM
same,TGI,[12],> 100 µM
same,TGI,[13],> 100 µM
same,TGI,[14],> 100 µM
same,TGI,[15],> 100 µM
same,TGI,[16],> 100 µM
same,TGI,[17],> 100 µM
same,TGI,[18],> 100 µM
same,TGI,[19],> 100 µM
same,TGI,[20],> 100 µM
same,TGI,[21],> 100 µM
same,TGI,[22],> 100 µM
same,TGI,[23],> 100 µM
same,TGI,[24],> 100 µM
same,TGI,[25],> 100 µM
same,TGI,[56],> 100 µM
same,TGI,[26],> 100 µM
same,TGI,[27],> 100 µM
same,TGI,[28],> 100 µM
same,TGI,[57],> 100 µM
same,TGI,[30],> 100 µM
same,TGI,[32],> 100 µM
same,TGI,[33],> 100 µM
same,TGI,[34],> 100 µM
same,TGI,[35],> 100 µM
same,TGI,[36],> 100 µM
same,TGI,[38],> 100 µM
same,TGI,[39],> 100 µM
same,TGI,[40],> 100 µM
same,TGI,[41],> 100 µM
same,TGI,[42],> 100 µM
same,TGI,[43],> 100 µM
same,TGI,[46],> 100 µM
same,TGI,[58],> 100 µM
same,TGI,[47],> 100 µM
same,TGI,[59],> 100 µM
same,TGI,[48],> 100 µM
same,TGI,[49],> 100 µM
same,TGI,[50],> 100 µM
same,TGI,[51],> 100 µM
same,TGI,[52],> 100 µM
same,TGI,[53],> 100 µM
same,TGI,[54],> 100 µM
same,TGI,[55],> 100 µM
COc1cc(=O)c2c(O)c3c(O)oc(C)cc3c(OC)c2c1,TGI,[1],> 100 µM
same,TGI,[2],71.2 µM
same,TGI,[3],86.6 µM
same,TGI,[4],97.5 µM
same,TGI,[5],> 100 µM
same,TGI,[6],> 100 µM
same,TGI,[7],60 µM
same,TGI,[8],> 100 µM
same,TGI,[9],40.7 µM
same,TGI,[10],47 µM
same,TGI,[11],52.6 µM
same,TGI,[12],69.8 µM
same,TGI,[13],64.9 µM
same,TGI,[14],53.8 µM
same,TGI,[15],46.7 µM
same,TGI,[16],65.8 µM
same,TGI,[17],> 100 µM
same,TGI,[18],88.5 µM
same,TGI,[19],87.7 µM
same,TGI,[20],72.7 µM
same,TGI,[21],38.4 µM
same,TGI,[22],52.9 µM
same,TGI,[23],> 100 µM
same,TGI,[24],46.4 µM
same,TGI,[56],72 µM
same,TGI,[26],80.6 µM
same,TGI,[27],64.5 µM
same,TGI,[28],86.8 µM
same,TGI,[57],42.4 µM
same,TGI,[30],> 100 µM
same,TGI,[31],> 100 µM
same,TGI,[32],> 100 µM
same,TGI,[33],> 100 µM
same,TGI,[34],> 100 µM
same,TGI,[35],62.5 µM
same,TGI,[36],98.9 µM
same,TGI,[37],51.7 µM
same,TGI,[38],55.8 µM
same,TGI,[39],27.9 µM
same,TGI,[41],59.1 µM
same,TGI,[42],63 µM
same,TGI,[43],> 100 µM
same,TGI,[44],76.1 µM
same,TGI,[45],86.7 µM
same,TGI,[46],> 100 µM
same,TGI,[58],70.2 µM
same,TGI,[47],> 100 µM
same,TGI,[48],42.2 µM
same,TGI,[49],64.2 µM
same,TGI,[50],> 100 µM
same,TGI,[51],63.8 µM
same,TGI,[52],73.7 µM
same,TGI,[53],32.7 µM
same,TGI,[54],> 100 µM
same,TGI,[55],90.8 µM
